A short description of the data set: Solubility at room temperature in xylene / toluene. It is filed as physicochemical.

Data on one compound can be found in patent US20250289790A1, “UV LIGHT STABILIZERS” (BASF SE, priority 2022, published 2025).

For the compound `CC(C)(C)c1cc(CCC(=O)OCC(COC(=O)CCc2cc(-n3nc4ccc(Cl)cc4n3)c(O)c(C(C)(C)C)c2)(COC(=O)CCc2cc(-n3nc4ccc(Cl)cc4n3)c(O)c(C(C)(C)C)c2)COC(=O)CCc2cc(-n3nc4ccc(Cl)cc4n3)c(O)c(C(C)(C)C)c2)cc(-n2nc3ccc(Cl)cc3n2)c1O` [Example C3], the soluble in xylene entry was “less than 1%”. The “Solubility at room temperature [g] xylene” value (room temperature) is 2 g.
